Tests used:
BRD2 = BRD2 (Homo sapiens, UniProt P25440); test: AlphaScreen binding inhibition assay with recombinant human BRD2
BRD4 = molecular target: T1, BRD4 (Homo sapiens, UniProt O60885); test: X-ray crystal structure at […] Å (soaked crystals); IC50 from AlphaScreen; format: binding
T1 construct: residues 42–168, BRD4-BD1 (N-terminal bromodomain)

BRD2, sequence (P25440 whole entry): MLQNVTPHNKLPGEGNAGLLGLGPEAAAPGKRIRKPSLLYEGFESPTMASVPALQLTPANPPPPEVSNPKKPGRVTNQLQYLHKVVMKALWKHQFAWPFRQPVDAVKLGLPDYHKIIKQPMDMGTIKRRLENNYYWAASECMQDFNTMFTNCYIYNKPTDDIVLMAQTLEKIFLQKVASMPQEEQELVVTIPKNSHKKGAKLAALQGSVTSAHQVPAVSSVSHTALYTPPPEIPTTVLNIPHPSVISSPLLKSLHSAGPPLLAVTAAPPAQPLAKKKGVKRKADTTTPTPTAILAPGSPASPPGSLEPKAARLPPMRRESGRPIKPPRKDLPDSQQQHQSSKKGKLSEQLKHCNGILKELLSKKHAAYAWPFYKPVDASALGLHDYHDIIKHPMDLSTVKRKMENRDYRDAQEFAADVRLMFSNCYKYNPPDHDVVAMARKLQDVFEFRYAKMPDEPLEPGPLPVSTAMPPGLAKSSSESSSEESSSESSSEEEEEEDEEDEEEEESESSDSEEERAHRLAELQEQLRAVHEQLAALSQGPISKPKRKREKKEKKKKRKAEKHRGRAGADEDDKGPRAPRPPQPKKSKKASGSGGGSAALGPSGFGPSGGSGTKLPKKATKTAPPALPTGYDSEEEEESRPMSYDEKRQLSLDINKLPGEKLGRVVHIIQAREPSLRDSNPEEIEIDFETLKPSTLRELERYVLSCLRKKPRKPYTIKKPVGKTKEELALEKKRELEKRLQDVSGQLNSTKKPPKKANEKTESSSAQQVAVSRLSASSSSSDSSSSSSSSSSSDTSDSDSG

- IC50 (BRD2): 11 mM
- IC50 (BRD4): 6 mM
Structure (SMILES): CC(=O)N(C)C [DMA, N,N-Dimethylacetamide]
